Among the data in patent US20130281465A1, “PYRAZOLE DERIVATIVE” (TAISHO PHARMACEUTICAL CO., LTD., priority 2010, published 2013) are IC50 values, retold here.

By IC50 is commonly meant the concentration needed to halve the response being measured.

For assay [1], the target named is T1, orexin type 2 receptor (hOX2R) (Homo sapiens, UniProt O43614).
T1 construct: expressed in transfected cells; host or cells: Chinese hamster ovary (CHO) cells
T1 sequence (O43614 1-444): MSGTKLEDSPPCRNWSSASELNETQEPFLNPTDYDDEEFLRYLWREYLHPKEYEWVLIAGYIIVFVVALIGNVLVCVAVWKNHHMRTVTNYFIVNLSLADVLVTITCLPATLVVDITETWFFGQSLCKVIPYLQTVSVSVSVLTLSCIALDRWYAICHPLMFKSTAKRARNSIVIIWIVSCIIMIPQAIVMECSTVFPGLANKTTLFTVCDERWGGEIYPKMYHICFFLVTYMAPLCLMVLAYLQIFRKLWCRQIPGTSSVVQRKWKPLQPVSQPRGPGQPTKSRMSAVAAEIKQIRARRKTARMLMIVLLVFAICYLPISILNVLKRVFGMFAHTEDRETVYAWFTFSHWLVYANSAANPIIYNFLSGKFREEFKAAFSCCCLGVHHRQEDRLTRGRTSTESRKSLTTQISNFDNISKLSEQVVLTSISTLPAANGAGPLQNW
The experiment in a line: Orexin receptor antagonistic activity, intracellular Ca2+ fluorescence (FDSS) in CHO cells expressing hOX2R. It is filed as cell-based. The conditions noted are these: CHO cells forced to express hOX2R; orexin-A analogue peptide ligand 3 nM; Fluo-4 maximum fluorescence; read-out: IC50 value OX2R. How it is done:
(§1) The antagonistic activity of each test compound against human orexin type 1 receptor (hOX1R) and orexin type 2 receptor (hOX2R) was performed as described in the literature with a modification (Toshikatsu Okumura et al., Biochemical and Biophysical Research Communications 280, 976-981, 2001). Chinese hamster ovary (CHO) cells forced to express hOX1R or hOX2R were seeded at 20,000 cells/well on a 96 well Black clear bottom plates (Nunc) and cultured for 16 hours under conditions of 37° C. and 5% CO2 using a Ham's F-12 medium containing 0.1 mM MEM non-essential amino acids, 0.5 mg/ml G418, and 10% fetal bovine serum (all from Invitrogen Corp.). After removal of the medium, 100 μL of the assay buffer (25 mM HEPES (Dojindo Laboratories), Hanks' balanced salt solution (Invitrogen Corp.), 0.1% bovine serum albumin, 2.5 mM probenecid, 200 μg/ml Amaranth (all from Sigma-Aldrich Corp.), pH 7.4) containing 0.5 μM Fluo-4AM ester (Dojindo Laboratories) was added thereto, and the cells were incubated for 60 minutes under conditions of 37° C. and 5% CO2. After removal of the buffer solution for assay containing Fluo-4AM ester, the test compound was dissolved at a concentration of 10 mM in dimethyl sulfoxide and diluted with the assay buffer, and 150 μL of the diluted solution was then added to each wells, which were then incubated for 30 minutes.
(§2) A peptide (Pyr-[…]11e-Leu-Thr-Leu-NH2; Peptide Institute, Inc.) substituted 2 amino acids of human orexin-A was diluted with the assay buffer to 300 pM (final concentration for hOX1R) or 3 nM (final concentration for hOX2R). 50 μL of this ligand solution was added thereto to start reaction. During the reaction, the fluorescence value of each well was measured every one second for 3 minutes using Functional Drug Screening System (FDSS; manufactured by Hamamatsu Photonics K.K.), and antagonistic activity was determined with the maximum fluorescence value as an index for intracellular Ca^2+ concentration. The antagonistic activity of the test compound was calculated with the fluorescence value of a well supplemented with only a dilution buffer solution as 100% and the fluorescence value of a well supplemented with a buffer solution containing neither the ligand nor the compound as 0%, and determined in terms of 50% inhibitory concentration (IC50 value) from fluorescence values derived from the test compound added at varying concentrations.

For assay [2], the target named is T2, human orexin type 1 receptor (hOX1R) (Homo sapiens, UniProt O43613).
T2 construct: expressed in transfected cells; host or cells: Chinese hamster ovary (CHO) cells
T2 sequence (O43613 1-425): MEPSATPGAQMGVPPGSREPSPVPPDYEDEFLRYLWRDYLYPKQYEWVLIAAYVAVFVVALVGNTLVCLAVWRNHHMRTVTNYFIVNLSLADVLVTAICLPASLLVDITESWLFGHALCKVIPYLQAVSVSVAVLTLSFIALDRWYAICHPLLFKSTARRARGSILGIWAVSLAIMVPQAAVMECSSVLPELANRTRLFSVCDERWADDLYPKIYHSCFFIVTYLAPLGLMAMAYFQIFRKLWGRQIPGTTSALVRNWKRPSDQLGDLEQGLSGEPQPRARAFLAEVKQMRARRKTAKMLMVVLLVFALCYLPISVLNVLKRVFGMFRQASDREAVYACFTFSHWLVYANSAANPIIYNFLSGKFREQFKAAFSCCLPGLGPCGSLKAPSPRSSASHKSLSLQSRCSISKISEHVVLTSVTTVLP
Put plainly: Orexin receptor antagonistic activity, intracellular Ca2+ fluorescence (FDSS) in CHO cells expressing hOX1R. The note with it: CHO cells forced to express hOX1R; orexin-A analogue peptide ligand 300 pM; Fluo-4 maximum fluorescence; read-out: IC50 value OX1R. It is filed as cell-based. How it is done:
as §1, §2

With `CCN(CCn1cc(-c2ccc(F)cc2)cn1)C(=O)c1cc(C)ccc1-n1nccn1` [Example 7, N-ethyl-N-{2-[4-(4-fluorophenyl)-1H-pyrazol-1-yl]ethyl}-5-methyl-2-(2H-1,2,3-triazol-2-yl)benzamide], the IC50 in assay [1] amounted to 6.3 nM; in assay [2], 2.3 nM.
`Cc1ccc(-n2nccn2)c(C(=O)NCCn2cc(-c3ccc(F)cn3)cn2)c1` [Example 1, N-{2-[4-(5-fluoropyridin-2-yl)-1H-pyrazol-1-yl]ethyl}-5-methyl-2-(2H-1,2,3-triazol-2-yl)benzamide]: the figures for the IC50 in assay [1] and in assay [2] were 2390 nM and 1040 nM, respectively.
With `CCN(CCn1ccc(-c2ccc(F)cc2)n1)C(=O)c1cc(C)ccc1-n1nccn1` [Example 8, N-ethyl-N-{2-[3-(4-fluorophenyl)-1H-pyrazol-1-yl]ethyl}-5-methyl-2-(2H-1,2,3-triazol-2-yl)benzamide], the IC50 was determined as 2.5 nM in assay [1] and 0.9 nM in assay [2].
For `CCN(CCn1cc(-c2ccc(F)cn2)cn1)C(=O)c1ccccc1-c1ncccn1` [Example 37, N-ethyl-N-{2-[4-(5-fluoropyridin-2-yl)-1H-pyrazol-1-yl]ethyl}-2-(pyrimidin-2-yl)benzamide], in that order: 301 nM and 110 nM.
For `CCN(CCn1ccc(-c2ccc(F)cn2)n1)C(=O)c1cc(Cl)ccc1-c1ncccn1` [Example 43, N-ethyl-5-chloro-N-{2-[3-(5-fluoropyridin-2-yl)-1H-pyrazol-1-yl]ethyl}-2-(pyrimidin-2-yl)benzamide], in that order: 3.5 nM and 1.8 nM.
Taken in the same sequence, the figures for `Cc1ccc(-n2nccn2)c(C(=O)N(CCn2ccc(-c3ccc(F)cc3)n2)CC2CC2)c1` [Example 28, N-(cyclopropylmethyl)-N-{2-[3-(4-fluorophenyl)-1H-pyrazol-1-yl]ethyl}-5-methyl-2-(2H-1,2,3-triazol-2-yl)benzamide] were 4 nM and 1.2 nM.
Consider `CN(CCn1ccc(-c2ccc(F)cn2)n1)C(=O)c1cc(F)ccc1-n1nccn1` [Example 23-2, N-methyl-N-{2-[3-(5-fluoropyridin-2-yl)-1H-pyrazol-1-yl]ethyl}-5-fluoro-2-(2H-1,2,3-triazol-2-yl)benzamide], for which the IC50 in assay [1] came to 132 nM; in assay [2], 76 nM.
As for `Cc1ccc(-n2nccn2)c(C(=O)N(CCn2cc(-c3ccc(F)cc3)cn2)CC2CC2)c1` [Example 6, N-(cyclopropylmethyl)-N-{2-[4-(4-fluorophenyl)-1H-pyrazol-1-yl]ethyl}-5-methyl-2-(2H-1,2,3-triazol-2-yl)benzamide], the IC50 amounted to 2.6 nM in assay [1] and 50.1 nM in assay [2].
Consider `CCN(CCn1cc(-c2ccccn2)cn1)C(=O)c1cc(C)ccc1-n1nccn1` [Example 11, N-ethyl-5-methyl-N-{2-[4-(pyridin-2-yl)-1H-pyrazol-1-yl]ethyl}-2-(2H-1,2,3-triazol-2-yl)benzamide], for which the IC50 in assay [1] came to 17.2 nM; in assay [2] it was 10.5 nM.
As for `Cc1ccc(-n2nccn2)c(C(=O)N(CCn2ccc(-c3ccc(F)cn3)n2)C2CC2)c1` [Example 30, N-cyclopropyl-N-{2-[3-(5-fluoropyridin-2-yl)-1H-pyrazol-1-yl]ethyl}-5-methyl-2-(2H-1,2,3-triazol-2-yl)benzamide], the IC50 stood at 1.8 nM in assay [1] and 1.3 nM in assay [2].
`CCN(CCn1ccc(-c2cccc(C)n2)n1)C(=O)c1cc(C)ccc1-n1nccn1` [Example 39, N-ethyl-5-methyl-N-{2-[3-(6-methylpyridin-2-yl)-1H-pyrazol-1-yl]ethyl}-2-(2H-1,2,3-triazol-2-yl)benzamide]: the IC50 amounted to 2.2 nM in assay [1] and 1.5 nM in assay [2].
For the compound `CCN(CCn1cc(-c2ccc(F)cn2)cn1)C(=O)c1cc(C)ccc1-n1nccn1` [Example 4, N-ethyl-N-{2-[4-(5-fluoropyridin-2-yl)-1H-pyrazol-1-yl]ethyl}-5-methyl-2-(2H-1,2,3-triazol-2-yl)benzamide], the IC50 in assay [1] came to 14.6 nM; in assay [2], 6 nM.
Taken in the same sequence, the figures for `CCN(CCn1cc(-c2ccc(Cl)cn2)cn1)C(=O)c1cc(C)ccc1-n1nccn1` [Example 10, N-{2-[4-(5-chloropyridin-2-yl)-1H-pyrazol-1-yl]ethyl}-N-ethyl-5-methyl-2-(2H-1,2,3-triazol-2-yl)benzamide] were 52.6 nM and 14.4 nM.
`CCN(CCn1ccc(-c2ccccn2)n1)C(=O)c1cc(C)ccc1-n1nccn1` [Example 9, N-ethyl-5-methyl-N-{2-[3-(pyridin-2-yl)-1H-pyrazol-1-yl]ethyl}-2-(2H-1,2,3-triazol-2-yl)benzamide]: the IC50 in assay [1] worked out at 4.3 nM; in assay [2], 1 nM.
For `Cc1ccc(-n2nccn2)c(C(=O)N(C)CCn2ccc(-c3ccc(F)cc3)n2)c1` [Example 20-2, N-{2-[3-(4-fluorophenyl)-1H-pyrazol-1-yl]ethyl}-N,5-dimethyl-2-(2H-1,2,3-triazol-2-yl)benzamide], in that order: 8.8 nM and 0.9 nM.
For `CCN(CCn1ccc(-c2ccc(F)cn2)n1)C(=O)c1ccc(F)cc1-n1nccn1` [Example 44, N-ethyl-4-fluoro-N-{2-[3-(5-fluoropyridin-2-yl)-1H-pyrazol-1-yl]ethyl}-2-(2H-1,2,3-triazol-2-yl)benzamide], in that order: 29.8 nM and 17.3 nM.
Take `CCN(CCn1ccc(-c2cc(C(F)(F)F)ccn2)n1)C(=O)c1cc(F)ccc1-c1ncccn1` [Example 61, N-ethyl-5-fluoro-2-(pyrimidin-2-yl)-N-(2-{3-[4-(trifluoromethyl)pyridin-2-yl]-1H-pyrazol-1-yl}ethyl)benzamide]: the IC50 in assay [1] worked out at 1130 nM; in assay [2], 239 nM.
As for `CCN(CCn1ccc(-c2ccc(F)cn2)n1)C(=O)c1cc(F)ccc1-c1ncccn1` [Example 41, N-ethyl-5-fluoro-N-{2-[3-(5-fluoropyridin-2-yl)-1H-pyrazol-1-yl]ethyl}-2-(pyrimidin-2-yl)benzamide], the IC50 is 7.6 nM in assay [1] and 0.5 nM in assay [2].
For the compound `CCN(CCn1ccc(-c2ccc(F)cn2)n1)C(=O)c1ccc(C)cc1-n1nccn1` [Example 47, N-ethyl-N-{2-[3-(5-fluoropyridin-2-yl)-1H-pyrazol-1-yl]ethyl}-4-methyl-2-(2H-1,2,3-triazol-2-yl)benzamide], the IC50 in assay [1] was 7.1 nM; in assay [2] it was 0.8 nM.
For `CCN(CCn1ccc(-c2ccc(F)cn2)n1)C(=O)c1cc(OC)ccc1-n1nccn1` [Example 50, N-ethyl-N-{2-[3-(5-fluoropyridin-2-yl)-1H-pyrazol-1-yl]ethyl}-5-methoxy-2-(2H-1,2,3-triazol-2-yl)benzamide], in that order: 214 nM and 20 nM.
With `Cc1ccc(-n2nccn2)c(C(=O)N(CCn2cc(-c3ccc(F)cn3)cn2)C2CC2)c1` [Example 13, N-cyclopropyl-N-{2-[4-(5-fluoropyridin-2-yl)-1H-pyrazol-1-yl]ethyl}-5-methyl-2-(2H-1,2,3-triazol-2-yl)benzamide], the IC50 in assay [1] came out at 15.4 nM; in assay [2], 9.8 nM.
